Data on 3 compounds can be found in ChEMBL document CHEMBL1155869, “Red light-activated phosphorothioate oligodeoxyribonucleotides” (Bioorg Med Chem Lett, 2008).

Experiment [1] in a line: Binding affinity to complementary RNA.
A short description of experiment [2]: Binding affinity to complementary DNA.

Activity calls are given as the source filed them. The rule behind the calls is not given here.

On to `Cc1cn([C@H]2C[C@H](OP(=O)(O)OC[C@H]3O[C@@H](n4ccc(N)nc4=O)[C@H](O)[C@@H]3OP(=O)(O)OC[C@H]3O[C@@H](n4cnc5c(=O)[nH]c(N)nc54)[C@H](O)[C@@H]3OP(=O)(O)OC[C@H]3O[C@@H](n4cnc5c(N)ncnc54)[C@H](O)[C@@H]3O)[C@@H](COP(=O)(O)O[C@H]3[C@@H](O)[C@H](n4ccc(N)nc4=O)O[C@@H]3COP(=O)(O)O[C@H]3[C@@H](O)[C@H](n4cnc5c(=O)[nH]c(N)nc54)O[C@@H]3COP(=O)(O)O[C@H]3[C@@H](O)[C@H](n4ccc(N)nc4=O)O[C@@H]3COP(=O)(O)O[C@H]3[C@@H](O)[C@H](n4cnc5c(N)ncnc54)O[C@@H]3CO)O2)c(=O)[nH]c1=O`, for which the result in experiment [1] and in experiment [2] was Active.
As to `Cc1cn([C@H]2C[C@H](OP(=O)(O)OC[C@H]3O[C@@H](n4ccc(N)nc4=O)[C@H](O)[C@@H]3OP(=O)(O)OC[C@H]3O[C@@H](n4cnc5c(=O)[nH]c(N)nc54)[C@H](O)[C@@H]3OP(=O)(O)OC[C@H]3O[C@@H](n4cnc5c(N)ncnc54)[C@H](O)[C@@H]3OP(=O)(O)OC[C@H]3O[C@@H](n4cnc5c(=O)[nH]c(N)nc54)[C@H](O)[C@@H]3OP(=O)(O)OC[C@H]3O[C@@H](n4ccc(N)nc4=O)[C@H](O)[C@@H]3OP(=O)(O)OC[C@H]3O[C@@H](n4cnc5c(=O)[nH]c(N)nc54)[C@H](O)[C@@H]3OP(=O)(O)OC[C@H]3O[C@@H](n4cc(C)c(=O)[nH]c4=O)C[C@@H]3OP(=O)(O)OC[C@H]3O[C@@H](n4cc(C)c(=O)[nH]c4=O)C[C@@H]3OP(=O)(O)OC[C@H]3O[C@@H](n4ccc(N)nc4=O)[C@H](O)[C@@H]3OP(=O)(O)OC[C@H]3O[C@@H](n4cc(C)c(=O)[nH]c4=O)C[C@@H]3OP(=O)(O)OC[C@H]3O[C@@H](n4ccc(N)nc4=O)[C@H](O)[C@@H]3OCCCS/C=C\SCCCOP(OC[C@H]3O[C@@H](n4cnc5c(N)ncnc54)[C@H](O)[C@@H]3OP(=O)(O)OC[C@H]3O[C@@H](n4ccc(N)nc4=O)[C@H](O)[C@@H]3OP(=O)(O)OC[C@H]3O[C@@H](n4cnc5c(=O)[nH]c(N)nc54)[C@H](O)[C@@H]3OP(=O)(O)OC[C@H]3O[C@@H](n4ccc(N)nc4=O)[C@H](O)[C@@H]3OP(=O)(O)OC[C@H]3O[C@@H](n4cc(C)c(=O)[nH]c4=O)C[C@@H]3OP(=O)(O)OC[C@H]3O[C@@H](n4ccc(N)nc4=O)[C@H](O)[C@@H]3OP(=O)(O)OC[C@H]3O[C@@H](n4cnc5c(=O)[nH]c(N)nc54)[C@H](O)[C@@H]3OP(=O)(O)OC[C@H]3O[C@@H](n4cnc5c(N)ncnc54)[C@H](O)[C@@H]3O)N(C(C)C)C(C)C)[C@@H](CO)O2)c(=O)[nH]c1=O` (stereo partly specified), the result in experiment [1] and in experiment [2] was inactive.
For the compound `Cc1cn([C@H]2C[C@H](OP(=O)(O)OC[C@H]3O[C@@H](n4ccc(N)nc4=O)[C@H](O)[C@@H]3OP(=O)(O)OC[C@H]3O[C@@H](n4cnc5c(=O)[nH]c(N)nc54)[C@H](O)[C@@H]3OP(=O)(O)OC[C@H]3O[C@@H](n4cnc5c(N)ncnc54)[C@H](O)[C@@H]3OP(=O)(O)OC[C@H]3O[C@@H](n4cnc5c(=O)[nH]c(N)nc54)[C@H](O)[C@@H]3OP(=O)(O)OC[C@H]3O[C@@H](n4ccc(N)nc4=O)[C@H](O)[C@@H]3OP(=O)(O)OC[C@H]3O[C@@H](n4cnc5c(=O)[nH]c(N)nc54)[C@H](O)[C@@H]3OP(=O)(O)OC[C@H]3O[C@@H](n4cc(C)c(=O)[nH]c4=O)C[C@@H]3OP(=O)(O)OC[C@H]3O[C@@H](n4cc(C)c(=O)[nH]c4=O)C[C@@H]3OP(=O)(O)OC[C@H]3O[C@@H](n4ccc(N)nc4=O)[C@H](O)[C@@H]3OP(=O)(O)OC[C@H]3O[C@@H](n4cc(C)c(=O)[nH]c4=O)C[C@@H]3OP(=O)(O)OC[C@H]3O[C@@H](n4ccc(N)nc4=O)[C@H](O)[C@@H]3O)[C@@H](CO)O2)c(=O)[nH]c1=O`, the result in experiment [1] and in experiment [2] was Active.
